The values that follow are results of earlier work, collected in PMC7148434, “ACE-domain selectivity extends beyond direct interacting residues at the active site” (Biochemical Journal, 2020).

Data set [1] has as its system nACE. Conditions: cited from earlier work.
For data set [2], the target named is S2_S′-nACE (S260T, E262S, D354E, S357V, T358V, Y369F, R381E and E431D) (Homo sapiens, UniProt P12821, D383E/E291S/E460D/R410E/S289T/S386V/T387V/Y398F). Further details: The truncated (single domain) wild-type N-domain (nACE), wild-type C-domain (cACE) and N-domain mutant constructs; made in house; host or cells: CHO-K1. Conditions: cited from earlier work.
Chain of S2_S′-nACE (S260T, E262S, D354E, S357V, T358V, Y369F, R381E and E431D) (P12821 40-624 S289T/E291S/D383E/S386V/T387V/Y398F/R410E/E460D): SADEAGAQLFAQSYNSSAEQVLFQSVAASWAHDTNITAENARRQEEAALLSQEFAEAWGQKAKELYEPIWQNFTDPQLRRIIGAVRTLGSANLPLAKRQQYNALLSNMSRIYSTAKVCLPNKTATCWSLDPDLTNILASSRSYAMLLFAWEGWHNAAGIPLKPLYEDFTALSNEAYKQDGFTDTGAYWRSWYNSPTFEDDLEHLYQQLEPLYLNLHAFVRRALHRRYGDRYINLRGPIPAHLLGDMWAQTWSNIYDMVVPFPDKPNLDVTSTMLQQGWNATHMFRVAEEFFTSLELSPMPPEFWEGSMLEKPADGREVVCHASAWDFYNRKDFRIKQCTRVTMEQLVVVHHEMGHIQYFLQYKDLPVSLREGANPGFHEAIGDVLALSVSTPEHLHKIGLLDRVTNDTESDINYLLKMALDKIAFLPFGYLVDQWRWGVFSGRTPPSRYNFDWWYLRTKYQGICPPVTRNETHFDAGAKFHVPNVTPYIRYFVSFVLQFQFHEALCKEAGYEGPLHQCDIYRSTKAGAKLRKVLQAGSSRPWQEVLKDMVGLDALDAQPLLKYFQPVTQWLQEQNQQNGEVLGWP
Data set [3] addresses S2-nACE (Y369F and R381E) (Homo sapiens, UniProt P12821, R410E/Y398F). Further details: The truncated (single domain) wild-type N-domain (nACE), wild-type C-domain (cACE) and N-domain mutant constructs; made in house; host or cells: CHO-K1. The note with it: cited from earlier work.
For data set [4], the target named is S′-nACE (S260T, E262S, D354E, S357V, T358V and E431D) (Homo sapiens, UniProt P12821, D383E/E291S/E460D/S289T/S386V/T387V). Further details: The truncated (single domain) wild-type N-domain (nACE), wild-type C-domain (cACE) and N-domain mutant constructs; made in house; host or cells: CHO-K1. The note with it: cited from earlier work.
Chain of S′-nACE (S260T, E262S, D354E, S357V, T358V and E431D) (P12821 40-624 S289T/E291S/D383E/S386V/T387V/E460D): as the sequence (P12821 40-624 S289T/E291S/D383E/S386V/T387V/Y398F/R410E/E460D) above, with F359Y, E371R counted along it
The target in data set [5] is nACE (Homo sapiens, UniProt P12821). Further details: The truncated (single domain) wild-type N-domain (nACE), wild-type C-domain (cACE) and N-domain mutant constructs; made in house; host or cells: CHO-K1. The note with it: nACE; ref Lubbe et al. [23]; cited from earlier work.
Chain of nACE (Homo sapiens, UniProt P12821) (P12821 40-624 limits assumed): as the sequence (P12821 40-624 S289T/E291S/D383E/S386V/T387V/Y398F/R410E/E460D) above, with T250S, S252E, E344D, V347S, V348T, F359Y, E371R, D421E counted along it
A further data set concerns the target cACE (Homo sapiens, UniProt P12821). Further details: The truncated (single domain) wild-type N-domain (nACE), wild-type C-domain (cACE) and N-domain mutant constructs; made in house; host or cells: CHO-K1; method as in Lubbe et al. [23]. The note with it: ref Lubbe et al. [23]; cited from earlier work.

Several values for one entry are separate records, joined by “and”; a condition that tells them apart may be missing. Identical values can stand only once.

Chain of S2-nACE (Y369F and R381E) (P12821 40-624 Y398F/R410E): as the sequence (P12821 40-624 S289T/E291S/D383E/S386V/T387V/Y398F/R410E/E460D) above, with T250S, S252E, E344D, V347S, V348T, D421E counted along it
Chain of cACE (P12821 643-1222 limits assumed): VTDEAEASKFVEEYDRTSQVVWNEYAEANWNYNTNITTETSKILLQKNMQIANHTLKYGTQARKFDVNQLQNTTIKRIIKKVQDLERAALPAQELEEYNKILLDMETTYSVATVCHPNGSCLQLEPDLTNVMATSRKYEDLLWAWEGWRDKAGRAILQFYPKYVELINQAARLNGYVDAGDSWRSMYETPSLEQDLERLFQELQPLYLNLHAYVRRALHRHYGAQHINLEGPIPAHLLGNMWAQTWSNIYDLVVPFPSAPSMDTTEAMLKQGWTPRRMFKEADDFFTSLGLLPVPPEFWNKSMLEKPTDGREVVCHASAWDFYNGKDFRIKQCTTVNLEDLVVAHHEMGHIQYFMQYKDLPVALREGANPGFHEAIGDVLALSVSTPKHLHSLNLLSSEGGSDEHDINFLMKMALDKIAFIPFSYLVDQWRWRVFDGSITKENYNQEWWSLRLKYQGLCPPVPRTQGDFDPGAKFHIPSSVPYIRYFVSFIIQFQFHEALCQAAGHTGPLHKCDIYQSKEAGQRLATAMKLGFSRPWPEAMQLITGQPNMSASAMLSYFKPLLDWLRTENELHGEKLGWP

For orientation: Ki means the equilibrium dissociation constant of an inhibitor or competing ligand from its target. With `C[C@H](CP(=O)(O)[C@H](Cc1ccccc1)NC(=O)C(N)Cc1nnn[nH]1)C(=O)N[C@@H](C)C(N)=O` (stereo partly drawn) [33RE], the “Selectivity (Ki cACE/Ki nACE or mutant)” value in the data set with nACE [1] (Ki cACE / Ki nACE (N-selectivity), ref Lubbe et al. [23]) was 1000 and 1006; in data set [2] (Ki cACE / Ki S2_S′-nACE, ref Lubbe et al. [23]), 1.1; in data set [3] (Ki cACE / Ki S2-nACE, ref Lubbe et al. [23]), 4; in data set [4] (Ki cACE / Ki S′-nACE, ref Lubbe et al. [23]) it was 48; at cACE it was 1. For the same molecule, the “selectivity over cACE” value with nACE [1] (nACE over cACE, previous kinetic studies) is around 1000 fold. Moreover, the “decrease in binding affinity compared with nACE” value in data set [2] (S2_S′-nACE relative to nACE) is given as 900 fold; in data set [3] (S2-nACE relative to nACE), 254 fold; in data set [4] (S′-nACE relative to nACE), 22 fold. Besides, the Ki in data set [3] (S2-nACE, ref Lubbe et al. [23]) is 2790 ± 156 nM; in data set [4] (S′-nACE, ref Lubbe et al. [23]) it was 237 ± 13.6 nM; on nACE [5], 11.2 ± 0.735 nM.
